Here are results for six molecules from ChEMBL document CHEMBL1141884 (Bioorg Med Chem Lett, 2005).

For orientation: IC50 means the concentration that inhibits the measured activity by half. Low readings indicate higher potency, high ones lower potency. As usually defined, the Ki is the dissociation constant of the complex between target and ligand, obtained from inhibition or displacement. A word on the Km: it is the substrate concentration at which the rate is half of its maximum.

In data set [1] the target is T1, Acetylcholinesterase (Homo sapiens, UniProt P22303). In words: Inhibitory concentration against Acetylcholinesterase activity.
Data set [2] addresses Cholinesterase (Homo sapiens, UniProt P06276).
The target of data set [3] is T1, Acetylcholinesterase. Briefly: Binding affinity for Acetylcholinesterase.
Substrate in data set [4]: COc1ccc(-c2cc3c(c(=O)o2)C[C@@]2(O)[C@@]4(C)CCC(=O)OC(C)(C)[C@@]4(O)CC[C@@]2(C)O3)cc1
Briefly: Michaelis-Menten constant for affinity against Acetylcholinesterase.

Chain of Cholinesterase (P06276 whole entry): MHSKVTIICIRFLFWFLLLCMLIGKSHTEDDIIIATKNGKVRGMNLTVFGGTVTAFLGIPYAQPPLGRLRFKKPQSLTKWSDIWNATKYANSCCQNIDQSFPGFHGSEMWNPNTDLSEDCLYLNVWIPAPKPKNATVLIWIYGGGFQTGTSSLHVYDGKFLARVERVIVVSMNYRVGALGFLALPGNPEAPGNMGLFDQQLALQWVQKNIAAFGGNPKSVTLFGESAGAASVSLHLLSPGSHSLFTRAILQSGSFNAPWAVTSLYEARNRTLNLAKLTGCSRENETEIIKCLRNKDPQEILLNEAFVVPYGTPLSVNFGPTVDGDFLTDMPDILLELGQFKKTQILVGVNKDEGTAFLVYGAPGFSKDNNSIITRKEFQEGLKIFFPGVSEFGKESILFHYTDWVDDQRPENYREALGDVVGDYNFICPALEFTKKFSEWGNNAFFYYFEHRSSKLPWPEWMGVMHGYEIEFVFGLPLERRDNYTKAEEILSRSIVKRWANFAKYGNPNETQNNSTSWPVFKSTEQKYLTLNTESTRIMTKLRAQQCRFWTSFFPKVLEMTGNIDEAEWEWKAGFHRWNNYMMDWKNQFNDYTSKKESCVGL

Regarding `COc1ccc(-c2cc3c(c(=O)o2)C[C@@]2(O)[C@@]4(C)CCC(=O)C(C)(C)[C@@]4(O)CC[C@@]2(C)O3)cc1`, the IC50 was 60 nM in data set [1] and more than 200000 nM in data set [2]. As for `COc1ccc(-c2cc3c(c(=O)o2)C[C@@]2(O)[C@@]4(C)C=CC(=O)C(C)(C)[C@@]4(O)CC[C@@]2(C)O3)cc1`, the 50% inhibitory concentration (IC50) in data set [1] was 90 nM; in data set [2], more than 200000 nM. On the same counts, the results for `COc1ccc(-c2cc3c(c(=O)o2)C[C@@]2(O)[C@@]4(C)C(=O)[C@@]5(OC)C(=O)O[C@]4(CC[C@@]2(C)O3)C5(C)C)cc1` [TERREULACTONE A] are 230 nM and more than 200000 nM.

`COc1ccc(-c2cc3c(c(=O)o2)C[C@@]2(O)[C@@]4(C)CCC(=O)OC(C)(C)[C@@]4(O)CC[C@@]2(C)O3)cc1` yielded a Ki in data set [3] of 2300 nM. The IC50 in data set [2] is more than 500000 nM. On to `COC1=CC(=O)[C@]2(C)[C@]3(O)Cc4c(cc(-c5cc(OC)c(OC)c(OC)c5)oc4=O)O[C@]3(C)CC[C@]2(O)C1(C)C`, for which the IC50 in data set [1] was 420 nM; in data set [2], more than 200000 nM.

B1: Acetylcholinesterase (Homo sapiens), P22303 (protein)
chain: MRPPQCLLHTPSLASPLLLLLLWLLGGGVGAEGREDAELLVTVRGGRLRGIRLKTPGGPVSAFLGIPFAEPPMGPRRFLPPEPKQPWSGVVDATTFQSVCYQYVDTLYPGFEGTEMWNPNRELSEDCLYLNVWTPYPRPTSPTPVLVWIYGGGFYSGASSLDVYDGRFLVQAERTVLVSMNYRVGAFGFLALPGSREAPGNVGLLDQRLALQWVQENVAAFGGDPTSVTLFGESAGAASVGMHLLSPPSRGLFHRAVLQSGAPNGPWATVGMGEARRRATQLAHLVGCPPGGTGGNDTELVACLRTRPAQVLVNHEWHVLPQESVFRFSFVPVVDGDFLSDTPEALINAGDFHGLQVLVGVVKDEGSYFLVYGAPGFSKDNESLISRAEFLAGVRVGVPQVSDLAAEAVVLHYTDWLHPEDPARLREALSDVVGDHNVVCPVAQLAGRLAAQGARVYAYVFEHRASTLSWPLWMGVPHGYEIEFIFGIPLDPSRNYTAEEKIFAQRLMRYWANFARTGDPNEPRDPKAPQWPPYTAGAQQYVSLDLRPLEVRRGLRAQACAFWNRFLPKLLSATDTLDEAERQWKAEFHRWSSYMVHWKNQFDHYSKQDRCSDL
Take B1: in data set [4], the Km was found to be 20 µM.
